Reference: patent US12029751B2, “Therapeutic agent for nervous system disease” (OSAKA UNIVERSITY, priority 2017, dated 2024)

What was measured:
[1] = system: rat spinal cord injury model; assay: BBB score in rat spinal cord injury model (lateral hemisection model); format: in vivo; conditions: 1 mg/kg/day osmotic minipump; for BBB score: left lower extremity
Experimental: Six-week-old female Wistar rats were used. The rats were purchased from Charles River Laboratories Japan, Inc. (Yokohama, Japan). Anesthesia was performed as follows. A 1:10 dilution of a mixture of three anesthetic agents in physiological saline was administered by intraperitoneal injection. One dose consisted of 0.2 mg/kg of midazolam, 0.015 mg/kg of medetomidine, and 0.25 mg/kg of butorphanol. The rat was placed in a prone position on an operating table, and a dorsal midline incision was made. The T10 vertebral arch was removed to expose the posterior face of the spinal cord, and the left spinal cord was hemisected using a sharp-pointed surgical scalpel (spitz mess). The skin was sutured using a 4-0 nylon thread and the surgery was completed. A comparison was made among three groups: a methylcobalamin treatment group, an untreated group, and a sham group. Immediately after the surgical operation, an osmotic minipump filled with methylcobalamin (1 mg/kg/day) or physiological saline was placed for the methylcobalamin treatment group and the untreated group, respectively, and left in the left dorsal subcutaneous space. The sham group underwent only resection of the Th10 vertebral arch.
Each rat was separately accommodated in a cage, allowed to walk freely, and observed for 5 minutes. According to a conventional method, left-lower-extremity function was evaluated using scores of 0 (no locomotion) to 21 (normal locomotion). The evaluations were performed before surgery, and at 1, 7, 14, 21, and 28 days after the surgery.

[2] = system: cerebral cortical neurons; assay: Neurite outgrowth assay (axon outgrowth promoting effect); format: cell-based, rat; conditions: for average length of axons: 72 hours after cell seeding
From the text: Cerebral cortical neurons were collected and cultured by a conventional method. Cerebral cortex was dissected from a fetus of a Sprague-Dawley (SD) rat (18th day of pregnancy) and recovered in ice-cooled Dulbecco's Modified Eagle Medium (DMEM) containing 10% fetal bovine serum (FBS) and 1% penicillin/streptomycin. The pia mater and blood vessels were removed, and the remaining cerebral cortex was transferred to DMEM (containing 1% penicillin/streptomycin and no FBS) and cut into small pieces having a size of 1 mm by surgical scissors. Papain (final concentration, 2 mg/ml) was added to the cell mixture, and the mixture was allowed to react at 37° C. for 30 minutes. DNase I (70 U/ml) was added to the reaction mixture and reaction was carried out for 30 seconds. Then, DMEM containing 10% FBS and 1% penicillin/streptomycin was added to terminate the reaction. The cell mixture was centrifuged at 800 rpm, the residue was re-suspended in DMEM containing 10% FBS and 1% penicillin/streptomycin, and the suspension was seeded on a dish coated with poly-L lysine (PLL). At 4 hours after the cell seeding, the medium was replaced with Neurobasal medium (containing 10% B27 supplement and 1% penicillin/streptomycin).
The cerebral cortical neurons (Example 1-1) were seeded, and the drug was added in different concentrations at 24 hours. The concentrations of methylcobalamin added were 1, 10, and 100 nM and 1, 10, and 100 μM. At 72 hours after the cell seeding, immunofluorescent staining was performed using an anti-TuJ1 antibody, and the lengths of axons (the longest neurite length per neuron) were measured. The measurement was performed on cells that were not in contact with other cells. In each evaluation, at least 30 neural axons were measured, and the mean of the obtained values was calculated and designated as a measured value.

## C/C1=C2/[N-][C@H]([C@H](CC(N)=O)[C@@]2(C)CCC(=O)NC[C@@H](C)OP(=O)([O-])O[C@H]2[C@@H](O)[C@@H](n3cnc4cc(C)c(C)cc43)O[C@@H]2CO)[C@]2(C)N=C(/C(C)=C3N=C(/C=C4N=C1[C@@H](CCC(N)=O)C\4(C)C)[C@@H](CCC(N)=O)[C@]\3(C)CC(N)=O)[C@@H](CCC(N)=O)[C@]2(C)CC(N)=O.[CH3-].[Co+3] [MeCbl, methylcobalamin]
[1]; 0 days after surgery (before surgery)
  BBB score: 21
[1]; 14, 21, and 28 days after the surgery
  left-lower-extremity motor function (BBB score) as compared to the untreated group: significantly improved
[1]; 1 day after surgery
  BBB score: 0.17
[1]; 7 days after surgery
  BBB score: 8.33
[1]; 14 days after surgery
  BBB score: 15.50
[1]; 21 days after surgery
  BBB score: 16.33
[1]; 28 days after surgery
  BBB score: 17
[2]; MeCbl 1 nM
  average length of axons: 67.2 µm
[2]; MeCbl 10 nM
  average length of axons: 71.2 µm
[2]; MeCbl 100 nM
  average length of axons: 75.2 µm
[2]; MeCbl 1 μM
  average length of axons: 79.9 µm
[2]; MeCbl 1 μM, listed as methylcobalamin
  average length of axons: significantly promoted
[2]; MeCbl 10 μM
  average length of axons: 86.4 µm
[2]; MeCbl 10 μM, listed as methylcobalamin
  average length of axons: significantly promoted
[2]; MeCbl 100 μM
  average length of axons: 66.2 µm
[2]; concentrations 1 nM to 100 μM tested
  methylcobalamin concentration at peak of axon outgrowth promotion: 10 µM
